Data reported in US10377774B2 (JINAN UNIVERSITY, priority 2013, dated 2019).
Marks after values point to notes of the source that are not given here.

What was measured:
[1] = test system: human non-small-cell lung cancer cell line A549; assay: MTT cell growth inhibition, A549; type: cell-based; details: Homo sapiens; A549, MTT assay, 72 h; read-out: IC50, growth of tumor cell line
[2] = test system: human colon cancer cell line LOVO; assay: MTT cell growth inhibition, LOVO; type: cell-based; details: Homo sapiens; LOVO (FAPα positive), MTT assay, 72 h; read-out: IC50, growth of tumor cell line
Source text: (§2) Experimental method: Cell lines (human non-small-cell lung cancer cell line A549, human colon cancer cell line LOVO, human nasopharyngeal carcinoma cell line CNE-2, human liver cancer cell line HepG2, human cervical carcinoma cell line Hela, human breast cancer cell lines MCF-7 and MDA-MB-231, human gastric carcinoma cell line NCI-N87, human prostatic cancer cell lines PC-3 and DU145, human leukemia cell line K562, human melanoma cell line A375, human neuroblastoma cell line SH-SY5H, human promyelocytic leukemia cell line HL-60, 5-FU-resistant human hepatocellular carcinoma cell line BEL-7402/5-Fu, doxorubicin-resistant hepatocellular carcinoma cell line HepG2/ADM, doxorubicin-resistant human breast cancer cell lines MCF-7/ADR) at logarithmic phase were resuspended in RPMI 1640 medium (containing 10% fetal bovine serum, 100 U/mL penicillin-streptomycin). Then, 100 μL of cells (cell concentration was 5×10^5/mL) were seeded into 96 wells plate. After 24 h incubation at 37° C. with 5% CO2, tested compounds were added (the control group without compound) for an additional 72 h incubation. After that, 30 μL of MTT [3-(4,5-Dimethylthiazol-2-yl)-2,5-diphenyltetrazolium bromide] solution (5 mg/mL) was added into each well and incubated for another 4 h at 37° C. and then the formazan crystals were solubilized with 100 μL DMSO. Finally, absorbance of each well was determined at 570 nm by a microplate reader (Thermo).
(§3) The concentration required to inhibit cell growth by 50% (IC50) was calculated from survival curves.

[3] = test system: human nasopharyngeal carcinoma cell line CNE-2; assay: MTT cell growth inhibition, CNE-2; type: cell-based; details: Homo sapiens; CNE-2, MTT assay, 72 h; read-out: IC50, growth of tumor cell line
Source text: as §2, §3

[4] = test system: human liver cancer cell line HepG2; assay: MTT cell growth inhibition, HepG2; type: cell-based; details: Homo sapiens; HepG2, MTT assay, 72 h; read-out: IC50, growth of tumor cell line
[5] = test system: human cervical carcinoma cell line Hela; assay: MTT cell growth inhibition, Hela; type: cell-based; details: Homo sapiens, MTT assay, 72 h, read-out: IC50, growth of tumor cell line
[6] = test system: human breast cancer cell line MCF-7; assay: MTT cell growth inhibition, MCF-7; type: cell-based; details: Homo sapiens, MCF7; MCF-7, MTT assay, 72 h; read-out: IC50, growth of tumor cell line
[7] = test system: human breast cancer cell line MDA-MB-231; assay: MTT cell growth inhibition, MDA-MB-231; type: cell-based; details: Homo sapiens; MDA-MB-231, MTT assay, 72 h; read-out: IC50, growth of tumor cell line
[8] = test system: human gastric carcinoma cell line NCI-N87; assay: MTT cell growth inhibition, NCI-N87; type: cell-based; details: Homo sapiens; NCI-N87, MTT assay, 72 h; read-out: IC50, growth of tumor cell line
[9] = test system: human prostatic cancer cell line DU145; assay: MTT cell growth inhibition, DU-145; type: cell-based; details: Homo sapiens; DU-145, MTT assay, 72 h; read-out: IC50, growth of tumor cell line
[10] = test system: human leukemia cell line K562; assay: MTT cell growth inhibition, K562; type: cell-based; details: Homo sapiens; K562, MTT assay, 72 h; read-out: IC50, growth of tumor cell line
Source text: as §2, §3

[11] = test system: human melanoma cell line A375; assay: MTT cell growth inhibition, A375; type: cell-based; details: Homo sapiens, A-375; A375, MTT assay, 72 h; read-out: IC50, growth of tumor cell line
[12] = test system: human neuroblastoma cell line SH-SY5H; assay: MTT cell growth inhibition, SH-SY5H; type: cell-based; details: Homo sapiens, Neuroblastoma cell, MTT assay, 72 h, read-out: IC50, growth of tumor cell line
[13] = test system: human promyelocytic leukemia cell line HL-60; assay: MTT cell growth inhibition, HL-60; type: cell-based; details: Homo sapiens; HL-60, MTT assay, 72 h; read-out: IC50, growth of tumor cell line
Source text: as §2, §3

[14] = test system: 5-FU-resistant human hepatocellular carcinoma cell line BEL-7402/5-Fu; assay: MTT cell growth inhibition, BEL-7402/5-Fu; type: cell-based; details: Homo sapiens, Bel7402/5-FU, MTT assay, 72 h, read-out: IC50, growth of tumor cell line
[15] = test system: doxorubicin-resistant hepatocellular carcinoma cell line HepG2/ADM; assay: MTT cell growth inhibition, HepG2/ADM; type: cell-based, human; details: Homo sapiens, MTT assay, 72 h, read-out: IC50, growth of tumor cell line
[16] = Acute toxicity test; type: in vivo; details: mouse, in vivo, ip; Kunming mice, injected intraperitoneally; read-out: LD50 (median lethal dose)
Experimental: Experimental method: Kunming mice were purchased from Guangdong Medical Experimental Animal Center, weighing 18-22 g, then randomly divided into several groups with 10 mice in each group. Different concentrations of VLB and vinca alkaloid dipeptide derivatives were injected intraperitoneally. Finally, the median lethal dose (LD50) was calculated according to the surviving animals.
LD50 was measured using the following formula:
LD50 (mg/kg)=The median lethal dose/body weight

[17] = test system: MDA-MB-231 xenografts; assay: MDA-MB-231 xenografts in nude mice; type: in vivo, BALB/nu/nu mice; details: MDA-MB-231 xenograft nude mice
Method in brief: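 Female BALB/nu/nu mice bearing subcutaneous MDA-MB-231 tumours (1×10^7 cells; 70–100 mm^3 at randomisation), six per group. Compounds given at 1 mg/kg i.p. every two days for 8 doses versus saline. Tumour volume (V=½ab^2) and body weight tracked.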

[18] = test system: HepG2 xenografts; assay: HepG2 xenografts in nude mice; type: in vivo; details: HepG2 xenograft nude mice
Method in brief: (§1)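 Female BALB/nu/nu mice received 1×10^7 cells subcutaneously and were randomized at 70–100 mm^3, six per group. Compounds were given at 1 mg/kg i.p. every two days for 8 doses, with saline as control. Tumor volume was calculated as V=½(ab^2), and body weight was monitored.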

[19] = test system: LOVO xenografts; assay: LOVO xenografts in nude mice; type: in vivo; details: LOVO xenograft nude mice
Method in brief: as §1

[20] = test system: K562 xenografts; assay: K562 xenografts in nude mice; type: in vivo; details: K562 xenograft nude mice
Method in brief: as §1

[21] = test system: HL-60 xenografts; assay: HL-60 xenografts in nude mice; type: in vivo; details: HL-60 xenograft nude mice
Method in brief: as §1

[22] = MTT cytotoxicity on normal cells, LO2; details: human, LO2 cells (human normal liver cells)
[23] = MTT cytotoxicity on normal cells, HUVEC; details: human, HUVEC (human umbilical vein endothelial cells)
Experimental: Then, 100 μL of cells (cell concentration was 5×10^5/mL) were seeded into 96 wells plate. After 24 h incubation at 37° C. with 5% CO2, tested compounds were added (the control group without compound) for an additional 72 h incubation. After that, 30 μL of MTT [3-(4,5-Dimethylthiazol-2-yl)-2,5-diphenyltetrazolium bromide] solution (5 mg/mL) was added into each well and incubated for another 4 h at 37° C. and then the formazan crystals were solubilized with 100 μL DMSO. Finally, absorbance of each well was determined at 570 nm by a microplate reader (Thermo).
The standard curve was drew with compound concentrations as the abscissa and cell growth inhibition rates as the ordinate. The concentration required to inhibit cell growth by 50% (IC50) was calculated from survival curves.
Experimental method: In vitro cytotoxicities of vinca alkaloids, hydrazinolyzed vinca alkaloids and vinca alkaloid dipeptide derivatives on human normal liver cells LO2 and human umbilical vein endothelial cells HUVEC were detected according to the method of Example 2.

[24] = 1 mg/kg i.p. every two days, 8 administrations

CC[C@]1(O)C[C@@H]2CN(CCc3c([nH]c4ccccc34)[C@@](C(=O)OC)(c3cc4c(cc3OC)N(C)[C@H]3[C@@](O)(C(=O)OC)[C@H](OC(C)=O)[C@]5(CC)C=CCN6CC[C@]43[C@@H]65)C2)C1 [Vinblastine, reference compound]
IC50 [1]: 2.31 ± 0.13 nM
IC50 [2]: 1.2 ± 0.24 nM
IC50 [3]: 1.03 ± 0.07 nM
IC50 [4]: 3.07 ± 0.12 nM
IC50 [5]: 4.34 ± 0.36 nM
IC50 [6]: 3.67 ± 1.34 nM
IC50 [7]: 0.81 ± 0.35 nM
IC50 [8]: 2.23 ± 0.43 nM
IC50 [9]: 0.78 ± 0.31 nM
IC50 [10]: 0.72 ± 0.2 nM
IC50 [11]: 3.24 ± 0.39 nM
IC50 [12]: 6.13 ± 0.51 nM
IC50 [13]: 5.21 ± 0.84 nM
IC50 [14]: 25.8 ± 3.01 nM
IC50 [15]: 10.1 ± 1.12 nM
LD50 [16]: 4 mg/kg
Anti-tumor rate (%) [17, 24]: 53.26** %
Body weight (g) Post-dose [17, 24]: 18.3 ± 2.4 g
Tumor weight [17, 24]: 1.22 ± 0.35 g
Body weight (g) Pre-dose ([17]; before dosing): 20.7 ± 1.4 g
Anti-tumor rate (%) ([18]; 1 mg/kg): 42.75* %
Body weight (g) Post-dose ([18]; 1 mg/kg): 18.2 ± 1.8 g
Body weight (g) Pre-dose ([18]; before dosing): 21.9 ± 0.7 g
Anti-tumor rate (%) ([19]; 1 mg/kg): 44.60* %
Body weight (g) Post-dose ([19]; 1 mg/kg): 19.6 ± 1.5 g
Tumor weight ([19]; 1 mg/kg): 1.59 ± 0.51 g
Body weight (g) Pre-dose ([19]; before dosing): 23.1 ± 1.4 g
Anti-tumor rate (%) ([20]; 1 mg/kg): 49.81* %
Body weight (g) Post-dose ([20]; 1 mg/kg): 17.4 ± 0.4 g
Tumor weight ([20]; 1 mg/kg): 0.86 ± 0.10 g
Body weight (g) Pre-dose ([20]; before dosing): 21.9 ± 0.7 g
Anti-tumor rate (%) ([21]; 1 mg/kg): 52.89** %
Body weight (g) Post-dose ([21]; 1 mg/kg): 16.2 ± 0.7 g
Tumor weight ([21]; 1 mg/kg): 0.98 ± 0.25 g
Body weight (g) Pre-dose ([21]; before dosing): 19.4 ± 1.0 g
IC50 at 72 h [22]: 0.34 ± 0.07 nM
IC50 at 72 h [23]: 0.76 ± 0.13 nM
